This is an account of results in patent US20060216235A1, “Cancerous disease modifying antibodies” (priority 2003, published 2006).

The test system of one data set is SKBR-3. Put plainly: Live/Dead cytotoxicity assay, hybridoma supernatants. Particulars: hybridoma supernatant, 5 days.
For the next data set, the system named is MDA-MB-231. The data set is described as above. Particulars: hybridoma supernatant, 5 days.
Another data set has as its system MDA-MB-468. Described as above. Particulars: hybridoma supernatant, 5 days.
The subject of the next data set is CCD 27sk. Particulars: purified antibody, 5 days; four experiments in triplicate; non-cancer cells.
A further data set concerns HT-29. The arrangement: key to the marks not given beside the values. Particulars: purified antibody, 5 days; four experiments in triplicate.
The test system of a further data set is PC-3. The arrangement: key to the marks not given beside the values. Particulars: purified antibody, 5 days; four experiments in triplicate.
A further data set has as its system Hs888 Lu. Particulars: purified antibody, 5 days; four experiments in triplicate; non-cancer cells.
The next data set has as its system OVCAR. Details: key to the marks not given beside the values. Particulars: purified antibody, 5 days; four experiments in triplicate.
The test system of the next data set is SW620. Particulars: purified antibody, 5 days; four experiments in triplicate.
For the next data set, the system named is MCF-7. The arrangement: key to the marks not given beside the values. Particulars: purified antibody, 5 days; four experiments in triplicate.
For a further data set, the system named is MB-231. The arrangement: key to the marks not given beside the values. Particulars: purified antibody, 5 days; four experiments in triplicate.
A further data set relates to SW1116. Particulars: purified antibody, 5 days; four experiments in triplicate.
The next data set relates to NCI H460. The arrangement: key to the marks not given beside the values. Particulars: purified antibody, 5 days; four experiments in triplicate.
A further data set deals with MB-468. Details: key to the marks not given beside the values. Particulars: purified antibody, 5 days; four experiments in triplicate.

As for `C[C@@H]1C[C@@H]([C@H](O)CC2CC(=O)NC(=O)C2)C(=O)[C@@H](C)C1` [Cycloheximide], in the data set on SKBR-3, the “Cytotoxicity (%) SKBR-3 Average” value was determined as 56%. The “Cytotoxicity (%) MB-231 Average” value with MDA-MB-231 amounted to 49%. The “Cytotoxicity (%) MB-468 Average” value in the data set on MDA-MB-468 was determined as 24%.
With `[N-]=[N+]=[N-].[Na+]` [NaN3], the “cytotoxicity, NORMAL CCD27sk” value in the data set on CCD 27sk is “−”. For the same compound, in the data set on HT-29, the “cytotoxicity, COLON HT-29” value is recorded as “+++”. In the data set with PC-3, the “cytotoxicity, PROSTATE PC-3” value is “+++”. Further, the “cytotoxicity, NORMAL Hs888 Lu” value with Hs888 Lu is reported as “−”. Moreover, the “cytotoxicity, OVARY OVCAR” value with OVCAR was “+++”. In the data set on SW620, the “cytotoxicity, COLON SW620” value is on record as “−”. Moreover, the “cytotoxicity, BREAST MCF-7” value in the data set with MCF-7 is listed as “+++”. For the same compound, the “cytotoxicity, BREAST MB-231” value in the data set with MB-231 is on record as “+++”. The “cytotoxicity, COLON SW1116” value with SW1116 is “−”. The “cytotoxicity, LUNG NCI H460” value in the data set on NCI H460 was “+++”. Moreover, the “cytotoxicity, BREAST MB-468” value in the data set with MB-468 is “+++”.
